Among the data in patent US20250163104A1, “MACROCYCLIC IMMUNOMODULATORS” (priority 2021, published 2025) are IC50 values, retold here.

Where a SMILES comes first, the peptide text is derived from it. Bridges are numbered along the chain shown (N, C = ends). [ ]: non-standard residue; d: D form. The star is where a group is joined. Ala(morpholin-4-yl) = N[C@@H](CN1CCOCC1)C(=O)O; Phe(4-COOH) = N[C@@H](Cc1ccc(C(=O)O)cc1)C(=O)O; Bip = N[C@@H](Cc1ccc(-c2ccccc2)cc1)C(=O)O; Phe(3-Me) = Cc1cccc(C[C@H](N)C(=O)O)c1; Val(3-OH) = CC(C)(O)[C@H](N)C(=O)O; Cha = N[C@@H](CC1CCCCC1)C(=O)O; Carboxymethyl = O=C(O)C*; Orn = NCCC[C@H](N)C(=O)O; Pra = C#CC[C@H](N)C(=O)O; Dab = NCC[C@H](N)C(=O)O; Dap = NC[C@H](N)C(=O)O

The target in this assay is T1, human PD-1 / PD-L1-Ig binding on Jurkat cell line over-expressing human PD-1 (Jurkat-PD-1) (Homo sapiens, UniProt Q15116).
T1 construct: expressed in transfected cells; host or cells: Jurkat
T1 sequence (Q15116 25-288): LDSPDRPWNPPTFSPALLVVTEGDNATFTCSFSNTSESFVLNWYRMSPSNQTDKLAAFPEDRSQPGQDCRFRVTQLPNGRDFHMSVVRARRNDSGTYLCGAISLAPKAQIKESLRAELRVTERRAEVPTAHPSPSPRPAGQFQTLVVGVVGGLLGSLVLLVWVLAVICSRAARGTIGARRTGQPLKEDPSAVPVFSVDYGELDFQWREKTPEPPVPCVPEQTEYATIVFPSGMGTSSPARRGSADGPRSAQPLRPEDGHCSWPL
Put plainly: Jurkat-PD-1 Cell Binding High-Content Screening Assay (CBA). The settings on record: Jurkat-PD-1 cells, PE-labeled PD-L1-Ig 20 nM final; read-out: Jurkat HPD1_PDL1 IC50. In kind it is cell-based. Summed up: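 Jurkat-hPD-1 cells in DMEM with 10% fetal calf serum receive test compound and are held at 37° C for 2 h. PE-labeled PD-L1-Ig is added at 20 nM final and left for 1 hour. Cells are then fixed and Hoechst-stained, and binding is measured by imaging.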
The term IC50 denotes the concentration at which inhibition is half-maximal. For the molecule `C#CC[C@H](NC(=O)[C@H](CCN)NC(=O)[C@@H]1CSCC(=O)N[C@@H](CN)C(=O)N[C@@H](Cc2ccc(C(=O)O)cc2)C(=O)N[C@@H](CC(=O)O)C(=O)N[C@@H](Cc2cccc(C)c2)C(=O)N[C@@H](Cc2ccc(C(=O)O)cc2)C(=O)N[C@@H](Cc2ccc(-c3ccccc3)cc2)C(=O)N[C@@H](Cc2ccc(C(=O)O)cc2)C(=O)N[C@@H](CCCN)C(=O)N[C@H](CC(C)C)C(=O)N[C@@H](CCN)C(=O)N[C@@H](CC2CCCCC2)C(=O)N[C@@H](C(C)(C)O)C(=O)N[C@@H](CCCN)C(=O)N1)C(N)=O` [Compound 1856] ({CH2CO}-[Dap][Phe(4-COOH)]D[Phe(3-Me)][Phe(4-COOH)][Bip][Phe(4-COOH)][Orn][dL][Dab][Cha][Val(3-OH)][Orn]C[Dab][Pra]-NH2; thioether N-14), the IC50 came out at 6 nM.
With `C#CC[C@H](NC(=O)[C@H](CCN)NC(=O)[C@@H]1CSCC(=O)N[C@@H](CCCN)C(=O)N[C@@H](Cc2ccc(C(=O)O)cc2)C(=O)N[C@@H](CC(=O)O)C(=O)N[C@@H](Cc2cccc(C)c2)C(=O)N[C@@H](Cc2ccc(C(=O)O)cc2)C(=O)N[C@@H](Cc2ccc(-c3ccccc3)cc2)C(=O)N[C@@H](Cc2ccc(C(=O)O)cc2)C(=O)N[C@@H](CCCN)C(=O)N[C@H](CC(C)C)C(=O)N[C@@H](CCN)C(=O)N[C@@H](CC2CCCCC2)C(=O)N[C@@H](C(C)(C)O)C(=O)N[C@@H](Cc2cnc[nH]2)C(=O)N1)C(N)=O` [Compound 1857] ({CH2CO}-[Orn][Phe(4-COOH)]D[Phe(3-Me)][Phe(4-COOH)][Bip][Phe(4-COOH)][Orn][dL][Dab][Cha][Val(3-OH)]HC[Dab][Pra]-NH2; thioether N-14) the figure was 7.4 nM; with `C#CC[C@H](NC(=O)[C@H](CCN)NC(=O)[C@@H]1CSCC(=O)N[C@@H](CN)C(=O)N[C@@H](Cc2ccc(OCC(=O)O)cc2)C(=O)N[C@@H](CC(=O)O)C(=O)N[C@@H](Cc2cccc(C)c2)C(=O)N[C@@H](Cc2ccc(OCC(=O)O)cc2)C(=O)N[C@@H](Cc2ccc(-c3ccccc3)cc2)C(=O)N[C@@H](Cc2ccc(OCC(=O)O)cc2)C(=O)N[C@@H](CCCN)C(=O)N[C@H](CC(C)C)C(=O)N[C@@H](CCN)C(=O)N[C@@H](CC2CCCCC2)C(=O)N[C@@H](C(C)(C)O)C(=O)N[C@@H]([C@@H](C)O)C(=O)N1)C(N)=O` [Compound 1858] ({CH2CO}-[Dap]Y(Carboxymethyl)D[Phe(3-Me)]Y(Carboxymethyl)[Bip]Y(Carboxymethyl)[Orn][dL][Dab][Cha][Val(3-OH)]TC[Dab][Pra]-NH2; thioether N-14), 5 nM.
As for `C#CC[C@H](NC(=O)[C@H](CCN)NC(=O)[C@@H]1CSCC(=O)N[C@@H](CN2CCOCC2)C(=O)N[C@@H](Cc2ccc(OCC(=O)O)cc2)C(=O)N[C@@H](CC(=O)O)C(=O)N[C@@H](Cc2cccc(C)c2)C(=O)N[C@@H](Cc2ccc(OCC(=O)O)cc2)C(=O)N[C@@H](Cc2ccc(-c3ccccc3)cc2)C(=O)N[C@@H](Cc2ccc(OCC(=O)O)cc2)C(=O)N[C@@H](CCCN)C(=O)N[C@H](CC(C)C)C(=O)N[C@@H](CCN)C(=O)N[C@@H](CC2CCCCC2)C(=O)N[C@@H](C(C)(C)O)C(=O)N[C@@H]([C@@H](C)O)C(=O)N1)C(N)=O` [Compound 1859] ({CH2CO}-[Ala(morpholin-4-yl)]Y(Carboxymethyl)D[Phe(3-Me)]Y(Carboxymethyl)[Bip]Y(Carboxymethyl)[Orn][dL][Dab][Cha][Val(3-OH)]TC[Dab][Pra]-NH2; thioether N-14), the 50% inhibitory concentration (IC50) was 2.1 nM.
As for `C#CC[C@H](NC(=O)[C@H](CCN)NC(=O)[C@@H]1CSCC(=O)N[C@@H](CN)C(=O)N[C@@H](Cc2ccc(OCC(=O)O)cc2)C(=O)N[C@@H](CC(=O)O)C(=O)N[C@@H](Cc2cccc(C)c2)C(=O)N[C@@H](Cc2ccc(OCC(=O)O)cc2)C(=O)N[C@@H](Cc2ccc(-c3ccccc3)cc2)C(=O)N[C@@H](Cc2ccc(OCC(=O)O)cc2)C(=O)N[C@@H](CCCN)C(=O)N[C@H](CC(C)C)C(=O)N[C@@H](CCN)C(=O)N[C@@H](CC2CCCCC2)C(=O)N[C@@H](C(C)(C)O)C(=O)N[C@@H](CO)C(=O)N1)C(N)=O` [Compound 1860] ({CH2CO}-[Dap]Y(Carboxymethyl)D[Phe(3-Me)]Y(Carboxymethyl)[Bip]Y(Carboxymethyl)[Orn][dL][Dab][Cha][Val(3-OH)]SC[Dab][Pra]-NH2; thioether N-14), the IC50 stood at 3.9 nM.
As for `C#CC[C@H](NC(=O)[C@H](CCN)NC(=O)[C@@H]1CSCC(=O)N[C@@H](CN)C(=O)N[C@@H](Cc2ccc(OCC(=O)O)cc2)C(=O)N[C@@H](CC(=O)O)C(=O)N[C@@H](Cc2cccc(C)c2)C(=O)N[C@@H](Cc2ccc(OCC(=O)O)cc2)C(=O)N[C@@H](Cc2ccc(-c3ccccc3)cc2)C(=O)N[C@@H](Cc2ccc(OCC(=O)O)cc2)C(=O)N[C@@H](CCCN)C(=O)N[C@H](CC(C)C)C(=O)N[C@@H](CCN)C(=O)N[C@@H](CC2CCCCC2)C(=O)N[C@@H](C(C)C)C(=O)N[C@@H](CO)C(=O)N1)C(N)=O` [Compound 1861] ({CH2CO}-[Dap]Y(Carboxymethyl)D[Phe(3-Me)]Y(Carboxymethyl)[Bip]Y(Carboxymethyl)[Orn][dL][Dab][Cha]VSC[Dab][Pra]-NH2; thioether N-14), the IC50 amounted to 10.8 nM.
With `C#CC[C@H](NC(=O)[C@H](CCN)NC(=O)[C@@H]1CSCC(=O)N[C@@H](CN)C(=O)N[C@@H](Cc2ccc(C(=O)O)cc2)C(=O)N[C@@H](CC(=O)O)C(=O)N[C@@H](Cc2cccc(C)c2)C(=O)N[C@@H](Cc2ccc(C(=O)O)cc2)C(=O)N[C@@H](Cc2ccc(-c3ccccc3)cc2)C(=O)N[C@@H](Cc2ccc(C(=O)O)cc2)C(=O)N[C@@H](CCCN)C(=O)N[C@H](CC(C)C)C(=O)N[C@@H](CCN)C(=O)N[C@@H](CC2CCCCC2)C(=O)N[C@@H](C(C)(C)O)C(=O)N[C@@H](Cc2cnc[nH]2)C(=O)N1)C(N)=O` [Compound 1862] ({CH2CO}-[Dap][Phe(4-COOH)]D[Phe(3-Me)][Phe(4-COOH)][Bip][Phe(4-COOH)][Orn][dL][Dab][Cha][Val(3-OH)]HC[Dab][Pra]-NH2; thioether N-14) the figure was 7.4 nM; with `C#CC[C@H](NC(=O)[C@H](CCN)NC(=O)[C@@H]1CSCC(=O)N[C@@H](CN2CCOCC2)C(=O)N[C@@H](Cc2ccc(OCC(=O)O)cc2)C(=O)N[C@@H](CC(=O)O)C(=O)N[C@@H](Cc2cccc(C)c2)C(=O)N[C@@H](Cc2ccc(OCC(=O)O)cc2)C(=O)N[C@@H](Cc2ccc(-c3ccccc3)cc2)C(=O)N[C@@H](Cc2ccc(OCC(=O)O)cc2)C(=O)N[C@@H](CCCN)C(=O)N[C@H](CC(C)C)C(=O)N[C@@H](CCN)C(=O)N[C@@H](CC2CCCCC2)C(=O)N[C@@H](C(C)C)C(=O)N[C@@H](CO)C(=O)N1)C(N)=O` [Compound 1863] ({CH2CO}-[Ala(morpholin-4-yl)]Y(Carboxymethyl)D[Phe(3-Me)]Y(Carboxymethyl)[Bip]Y(Carboxymethyl)[Orn][dL][Dab][Cha]VSC[Dab][Pra]-NH2; thioether N-14), 4.3 nM.
